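Five concentrations, 48 hours, 96-well plates. TGI: total growth inhibition.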 Where a SMILES comes first, the peptide text is derived from it. The star is where a group is joined. Boc = CC(C)(C)OC(=O)*; OtBu = CC(C)(C)O*

Test in all cases: NCI anticancer screen, dose series, 48 h
The test system of assay [1] is CCRF-CEM leukemia.
The test system of assay [2] is T-47D breast.
Assay [3] concerns SF-268 CNS.
For assay [4], the system named is SR leukemia.
Assay [5] has as its system MDA-MB-231 breast.
Assay [6] concerns NCI-H23 lung.
Assay [7] deals with MDA-N.
Assay [8] deals with SNB-75 CNS.
For assay [9], the system named is RXF 393 renal.
Assay [10] has as its system ACHN renal.
Assay [11] has as its system TK-10 renal.
The subject of assay [12] is HT29 colon.
In assay [13] the test system is RPMI-8226 leukemia.
For assay [14], the system named is OVCAR-5 ovarian.
Assay [15] relates to SN12C renal.
For assay [16], the system named is IGROV1 ovarian.
Assay [17] has as its system M14 melanoma.
For assay [18], the system named is LOX IMVI melanoma.
Assay [19] concerns A498 renal.
The test system of assay [20] is OVCAR-3 ovarian.

`CC(C(=O)NCNC(=O)c1ccccc1)C(=O)NCc1ccccc1` (stereo unspecified): the TGI in [1], in assay [2], in assay [3], in assay [4], in [5] and in assay [6] was greater than 100 µM each time. The TGI in [7], in [8], in assay [9], in assay [10], in [11] and in assay [12] was greater than 100 µM throughout. Besides, the TGI in assay [13], in assay [14], in [15], in [16] and in [17] was greater than 100 µM in each case.

Take `CN1CN(c2ccccc2)C2(CCN(CCCN(C)c3ccc(F)cc3)CC2)C1=O`: the TGI in assay [1] was determined as 62.1 µM; in [2], 41.7 µM; in [3], 54.6 µM; in assay [5] it was 28.3 µM; in [6] it was 44.1 µM; in [7], 30.7 µM. Further, the TGI in assay [8] stood at 40 µM; in assay [18], 31 µM; in [19], 72.6 µM; in assay [9] it was 46.2 µM; in assay [10], 53.2 µM; in assay [11], 44.9 µM. The TGI in assay [20] is 31.7 µM; in [12], 22.6 µM; in [13] it was 80.4 µM; in [14], 41.8 µM; in [15] it was 66.4 µM; in [16], 34.6 µM. The compound also showed a TGI in assay [17] of 30.7 µM.

For the compound `Cc1c(S(=O)(=O)/N=C(\NO)Nc2ccc(Cl)cc2)sc2ccc(Cl)cc12`, the TGI is greater than 100 µM in assay [1]; 89.9 µM in assay [2]; 35.6 µM in assay [3]; 42.7 µM in assay [5]; 33.6 µM in assay [6]; 32.9 µM in [7]. The TGI in assay [8] came out at 41.9 µM; in assay [18], 32.2 µM; in assay [9], 47.1 µM; in assay [10], 28.5 µM; in [11], 35.5 µM; in assay [20], 25.8 µM. Moreover, the TGI was determined as 34.3 µM in assay [12]; 33.3 µM in assay [14]; 35.5 µM in assay [15]; 27.5 µM in [16]; 31.2 µM in assay [17].

Take `COc1cc(N(CCC#N)CCC#N)ccc1/C(N=Nc1cccc([N+](=O)[O-])c1)=N\NC(=O)c1ccc(C)cc1`: the TGI was 99.2 µM in assay [1]; greater than 100 µM in assay [2]; greater than 100 µM in assay [3]; greater than 100 µM in assay [5]; greater than 100 µM in [6]; greater than 100 µM in [7]. Further, the TGI in assay [18], in assay [19], in [9], in [10], in assay [11] and in assay [20] was greater than 100 µM in each case. Further, the TGI in [12], in assay [13], in [14], in [15], in assay [16] and in assay [17] was greater than 100 µM throughout.

For `CCOC(=O)c1nc2ccccc2nc1Oc1ccc(F)cc1`, the TGI in [1], in assay [2], in assay [3], in assay [5], in assay [7] and in [8] was greater than 100 µM throughout. The TGI in assay [18], in assay [19], in [9], in assay [10], in assay [11] and in [20] was greater than 100 µM each time. In addition, the TGI in assay [12], in [13], in assay [14], in [15], in assay [16] and in assay [17] was greater than 100 µM each time.

For `C/C(=C/C(=O)N(C)c1ccccc1Cl)O[Si](C(C)C)(C(C)C)C(C)C`, the TGI was greater than 100 µM in assay [2]; 46.4 µM in assay [3]; 50.1 µM in [5]; 62.2 µM in [6]; 68.7 µM in assay [7]; greater than 100 µM in assay [8]. The TGI in assay [18] was 33.2 µM; in assay [9], 34.5 µM; in assay [11] it was greater than 100 µM; in assay [20], 33.5 µM; in [12] it was 34 µM; in [13], 63.9 µM. Also, the TGI in assay [14] came out at 34.8 µM; in assay [15] it was 32.4 µM; in assay [16], 59.7 µM; in assay [17] it was 70.9 µM.

For the compound `N#CC(C#N)=CNC(=S)Nc1ccc(S(=O)(=O)Nc2nccs2)cc1`, the TGI in assay [2], in assay [3], in [5], in [6], in [7] and in assay [8] was greater than 100 µM in each case. Moreover, the TGI in assay [18], in assay [19], in assay [9], in assay [10], in [11] and in [20] was greater than 100 µM throughout. The TGI in assay [12], in [14], in assay [15], in assay [16] and in assay [17] was greater than 100 µM throughout.

In the case of `CC(C)(C)OC(=O)CC(NC(=O)OC(C)(C)C)C(=O)NC(Cc1ccccc1)C(N)=O` (stereo unspecified) (Boc-Asp(OtBu)-Phe-NH2; configuration not given here), the TGI in [1], in assay [2], in assay [3], in [5], in assay [6] and in assay [7] was greater than 100 µM in each case. The TGI in assay [8], in assay [18], in [19], in assay [9], in assay [10] and in assay [11] was greater than 100 µM in each case. Also, the TGI in assay [20], in assay [12], in assay [13], in assay [14], in [15] and in assay [16] was greater than 100 µM in each case. Besides, in assay [17], the TGI is greater than 100 µM.
